Test results from PubChem BioAssay AID2060887 (Molecular Pharmacology Branch, DTP, NCI, 2025).
Where “and” joins values, the source holds several entries; their conditions need not be identical. Identical values can stand only once. Blank lines part the entries; values can stand above or below the molecule they belong to.

System: 782815-120-R-J1-PDC complex spheroid viability
Test: Anticancer human tumor 782815-120-R-J1-PDC patient-derived colon adenocarcinoma cell line growth inhibition [RAS]
Conditions: for viability, T/C: stronger effect = lower value
Summary of the method: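 Tumour cells grown as complex spheroids with HUVEC endothelial cells and mesenchymal stem cells, treated with RAS pathway inhibitor combinations. Each agent spans half-log steps from near clinical Cmax, or 10 microM where Cmax is unknown.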

[1] = curve of first compound, second compound 0.000949 µM
[2] = curve of first compound, second compound 0.003 µM
[3] = curve of first compound, second compound 0.00949 µM
[4] = curve of first compound, second compound 0.03 µM
[5] = curve of first compound, second compound 0.0949 µM
[6] = curve of first compound, second compound 0.3 µM
[7] = second compound 0.000949 µM, first compound 0.0316 µM
[8] = second compound 0.000949 µM, first compound 0.1 µM
[9] = second compound 0.000949 µM, first compound 0.316 µM
[10] = second compound 0.000949 µM, first compound 1 µM
[11] = second compound 0.000949 µM, first compound 3.16 µM
[12] = second compound 0.000949 µM, first compound 10 µM
[13] = second compound 0.003 µM, first compound 0.0316 µM
[14] = second compound 0.003 µM, first compound 0.1 µM
[15] = second compound 0.003 µM, first compound 0.316 µM
[16] = second compound 0.003 µM, first compound 1 µM
[17] = second compound 0.003 µM, first compound 3.16 µM
[18] = second compound 0.003 µM, first compound 10 µM
[19] = second compound 0.00949 µM, first compound 0.0316 µM
[20] = second compound 0.00949 µM, first compound 0.1 µM
[21] = second compound 0.00949 µM, first compound 0.316 µM
[22] = second compound 0.00949 µM, first compound 1 µM
[23] = second compound 0.00949 µM, first compound 3.16 µM
[24] = second compound 0.00949 µM, first compound 10 µM
[25] = second compound 0.03 µM, first compound 0.0316 µM
[26] = second compound 0.03 µM, first compound 0.1 µM
[27] = second compound 0.03 µM, first compound 0.316 µM
[28] = second compound 0.03 µM, first compound 1 µM
[29] = second compound 0.03 µM, first compound 3.16 µM
[30] = second compound 0.03 µM, first compound 10 µM
[31] = second compound 0.0949 µM, first compound 0.0316 µM
[32] = second compound 0.0949 µM, first compound 0.1 µM
[33] = second compound 0.0949 µM, first compound 0.316 µM
[34] = second compound 0.0949 µM, first compound 1 µM
[35] = second compound 0.0949 µM, first compound 3.16 µM
[36] = second compound 0.0949 µM, first compound 10 µM
[37] = second compound 0.3 µM, first compound 0.0316 µM
[38] = second compound 0.3 µM, first compound 0.1 µM
[39] = second compound 0.3 µM, first compound 0.316 µM
[40] = second compound 0.3 µM, first compound 1 µM
[41] = second compound 0.3 µM, first compound 3.16 µM
[42] = second compound 0.3 µM, first compound 10 µM
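Further: spheroids exposed to compounds for 7 days before reading.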
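Wherever viability, T/C is given: 100% = DMSO vehicle control viability.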

IC50 [1]: < 31.6 nM
IC50 [2]: < 31.6 nM
IC50 [3]: < 31.6 nM
IC50 [4]: < 31.6 nM
IC50 [5]: < 31.6 nM
IC50 [6]: < 31.6 nM
SMILES: CC(=O)OC12COC1CC(O)C1(C)C(=O)C(O)C3=C(C)C(OC(=O)C(O)C(NC(=O)OC(C)(C)C)c4ccccc4)CC(O)(C(OC(=O)c4ccccc4)C21)C3(C)C (stereo not given) + CCn1c(-c2cc(N3CCN(C)CC3)cnc2C(C)OC)c2c3cc(ccc31)-c1csc(n1)CC(NC(=O)C1CC1C)C(=O)N1CCCC(N1)C(=O)OCC(C)(C)C2
viability, T/C [7]: 26%
viability, T/C [8]: 27.8%
viability, T/C [9]: 23.1%
viability, T/C [10]: 28.1%
viability, T/C [11]: 27.1%
viability, T/C [12]: 32.5%
viability, T/C [13]: 25.8%
viability, T/C [14]: 24.6%
viability, T/C [15]: 23.2%
viability, T/C [16]: 22%
viability, T/C [17]: 21.3%
viability, T/C [18]: 25.7%
viability, T/C [19]: 19.1%
viability, T/C [20]: 16.4%
viability, T/C [21]: 15.1%
viability, T/C [22]: 16.4%
viability, T/C [23]: 19.1%
viability, T/C [24]: 16.1%
viability, T/C [25]: 12.5%
viability, T/C [26]: 13.5%
viability, T/C [27]: 13.3%
viability, T/C [28]: 13.3%
viability, T/C [29]: 14.8%
viability, T/C [30]: 13.3%
viability, T/C [31]: 12.6%
viability, T/C [32]: 12.4%
viability, T/C [33]: 10.3%
viability, T/C [34]: 12.2%
viability, T/C [35]: 11.3%
viability, T/C [36]: 11.3%
viability, T/C [37]: 13%
viability, T/C [38]: 12.6%
viability, T/C [39]: 9.92%
viability, T/C [40]: 9.28%
viability, T/C [41]: 10.9%
viability, T/C [42]: 13%

IC50 (curve of compound): > 10000 nM
SMILES: NC1c2ccccc2OC12CCN(c1cnc3c(N4CCCc5ncccc54)n[nH]c3n1)CC2 (stereo not given)
viability, T/C (compound 0.0316 µM): 99% [middle of 4 runs]
viability, T/C (compound 0.1 µM): 96.6% [middle of 4 runs]
viability, T/C (compound 0.316 µM): 104% [middle of 4 runs]
viability, T/C (compound 1 µM): 95% [middle of 4 runs]
viability, T/C (compound 3.16 µM): 102% and 94.6% and 99.8% (2×)
viability, T/C (compound 10 µM): 86.9% [middle of 4 runs]

IC50 [1]: > 10000 nM
IC50 [2]: > 10000 nM
IC50 [3]: < 31.6 nM
IC50 [4]: < 31.6 nM
IC50 [5]: < 31.6 nM
IC50 [6]: < 31.6 nM
SMILES: C[C@@H](NC(=O)c1ncnc(N)c1Cl)c1ncc(C(=O)Nc2cc(C(F)(F)F)c(Cl)cn2)s1 + CCn1c(-c2cc(N3CCN(C)CC3)cnc2C(C)OC)c2c3cc(ccc31)-c1csc(n1)CC(NC(=O)C1CC1C)C(=O)N1CCCC(N1)C(=O)OCC(C)(C)C2
viability, T/C [7]: 82.2%
viability, T/C [8]: 95.5%
viability, T/C [9]: 76.9%
viability, T/C [10]: 73.4%
viability, T/C [11]: 58.8%
viability, T/C [12]: 66.8%
viability, T/C [13]: 74.1%
viability, T/C [14]: 69.4%
viability, T/C [15]: 62.9%
viability, T/C [16]: 60.5%
viability, T/C [17]: 55.1%
viability, T/C [18]: 54.7%
viability, T/C [19]: 47.9%
viability, T/C [20]: 50.3%
viability, T/C [21]: 47.7%
viability, T/C [22]: 46.6%
viability, T/C [23]: 47%
viability, T/C [24]: 44.6%
viability, T/C [25]: 25.8%
viability, T/C [26]: 33%
viability, T/C [27]: 32%
viability, T/C [28]: 31.9%
viability, T/C [29]: 37.6%
viability, T/C [30]: 35.9%
viability, T/C [31]: 19.7%
viability, T/C [32]: 23.8%
viability, T/C [33]: 25.3%
viability, T/C [34]: 27.1%
viability, T/C [35]: 30.8%
viability, T/C [36]: 27.6%
viability, T/C [37]: 18.6%
viability, T/C [38]: 20.7%
viability, T/C [39]: 23.1%
viability, T/C [40]: 21.9%
viability, T/C [41]: 26.4%
viability, T/C [42]: 27.9%

IC50 (curve of first compound, second compound 0.00316 µM): 62.7 nM
IC50 (curve of first compound, second compound 0.01 µM): 53.2 nM
IC50 (curve of first compound, second compound 0.0316 µM): 58.9 nM
IC50 (curve of first compound, second compound 0.1 µM): 53.6 nM
IC50 (curve of first compound, second compound 0.316 µM): 60.4 nM
IC50 (curve of first compound, second compound 1 µM): 61.4 nM
SMILES: Nc1ccn(C2OC(CO)C(O)C2(F)F)c(=O)n1 (stereo not given) + C=CC(=O)N1CCN(c2nc(OCC3CCCN3C)nc3c(F)c(-c4nc(N)cc(C)c4C(F)(F)F)c(Cl)cc23)C(C)C1
viability, T/C (second compound 0.00316 µM, first compound 0.00316 µM): 90.9%
viability, T/C (second compound 0.00316 µM, first compound 0.01 µM): 81.2%
viability, T/C (second compound 0.00316 µM, first compound 0.0316 µM): 56.9%
viability, T/C (second compound 0.00316 µM, first compound 0.1 µM): 46.9%
viability, T/C (second compound 0.00316 µM, first compound 0.316 µM): 24.7%
viability, T/C (second compound 0.00316 µM, first compound 1 µM): 19.1%
viability, T/C (second compound 0.01 µM, first compound 0.00316 µM): 93.9%
viability, T/C (second compound 0.01 µM, first compound 0.01 µM): 82%
viability, T/C (second compound 0.01 µM, first compound 0.0316 µM): 57.8%
viability, T/C (second compound 0.01 µM, first compound 0.1 µM): 40.7%
viability, T/C (second compound 0.01 µM, first compound 0.316 µM): 23.6%
viability, T/C (second compound 0.01 µM, first compound 1 µM): 21%
viability, T/C (second compound 0.0316 µM, first compound 0.00316 µM): 99%
viability, T/C (second compound 0.0316 µM, first compound 0.01 µM): 83.5%
viability, T/C (second compound 0.0316 µM, first compound 0.0316 µM): 57.9%
viability, T/C (second compound 0.0316 µM, first compound 0.1 µM): 43.6%
viability, T/C (second compound 0.0316 µM, first compound 0.316 µM): 27.1%
viability, T/C (second compound 0.0316 µM, first compound 1 µM): 21.7%
viability, T/C (second compound 0.1 µM, first compound 0.00316 µM): 93.3%
viability, T/C (second compound 0.1 µM, first compound 0.01 µM): 85.7%
viability, T/C (second compound 0.1 µM, first compound 0.0316 µM): 54.3%
viability, T/C (second compound 0.1 µM, first compound 0.1 µM): 41.3%
viability, T/C (second compound 0.1 µM, first compound 0.316 µM): 31.2%
viability, T/C (second compound 0.1 µM, first compound 1 µM): 21.5%
viability, T/C (second compound 0.316 µM, first compound 0.00316 µM): 92.3%
viability, T/C (second compound 0.316 µM, first compound 0.01 µM): 77.6%
viability, T/C (second compound 0.316 µM, first compound 0.0316 µM): 61.6%
viability, T/C (second compound 0.316 µM, first compound 0.1 µM): 40.9%
viability, T/C (second compound 0.316 µM, first compound 0.316 µM): 29.4%
viability, T/C (second compound 0.316 µM, first compound 1 µM): 21.4%
viability, T/C (second compound 1 µM, first compound 0.00316 µM): 92%
viability, T/C (second compound 1 µM, first compound 0.01 µM): 85.8%
viability, T/C (second compound 1 µM, first compound 0.0316 µM): 58.8%
viability, T/C (second compound 1 µM, first compound 0.1 µM): 43%
viability, T/C (second compound 1 µM, first compound 0.316 µM): 29.2%
viability, T/C (second compound 1 µM, first compound 1 µM): 23.1%

IC50 (curve of compound): > 1000 nM
SMILES: CCN1CCN(Cc2ccc(Nc3ncc(F)c(-c4cc(F)c5nc(C)n(C(C)C)c5c4)n3)nc2)CC1
viability, T/C (compound 0.00316 µM): 102% [middle of 4 runs]
viability, T/C (compound 0.01 µM): 99.6% [middle of 4 runs]
viability, T/C (compound 0.0316 µM): 93.5% and 96.4% and 101% (2×)
viability, T/C (compound 0.1 µM): 100% [middle of 4 runs]
viability, T/C (compound 0.316 µM): 113% [middle of 4 runs]
viability, T/C (compound 1 µM): 125% [middle of 4 runs]
